One assay has as its system NCI-H929 cell lines. Kind of assay: In vitro cytotoxicity, CellTiter-Glo (CTG) assay (Example B, Method B). It counts as cell-based. The note with it: Homo sapiens, NCI-H929, 48 h, NCI-H929 cells, 48 h incubation, read-out: C50. The essentials:
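ATP-based luminescence (CellTiter-Glo) after 48 h incubation at 37° C., 5% CO2 gave NCI-H929 viability. Eleven concentrations tested, highest final 30 μM, dispensed acoustically from 10 mM DMSO stocks; C50 defined as concentration reaching 50% viability.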

Assay [1] deals with Cy5-labelled Mcl1 (amino acids 171-321) C286S protein (UniProtKB Q07820) (Homo sapiens (Human), UniProt Q07820, C286S). Nature of the assay: Inhibition of Mcl-1 by the fluorescence quenching assay (Example A, Method B). It counts as binding. Summed up: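 Eleven-point compound series incubated 2 h at room temperature with 1 nM Cy5-tagged protein and quencher-labelled PUMA peptide at 10, 20 or 400 nM in HEPES/NaCl/Tween 20, pH 7.4, 5% DMSO. IC50 for 50% fluorescence increase by 4-parameter fit, then Ki derived (complete cKi or estimated eKi).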

Molecules are shown by their SMILES.

Broadly, the Ki is a dissociation constant, usually derived from enzyme kinetics or from competition with a known ligand.

Sequence of Cy5-labelled Mcl1 (amino acids 171-321) C286S protein (Q07820 171-321 C286S): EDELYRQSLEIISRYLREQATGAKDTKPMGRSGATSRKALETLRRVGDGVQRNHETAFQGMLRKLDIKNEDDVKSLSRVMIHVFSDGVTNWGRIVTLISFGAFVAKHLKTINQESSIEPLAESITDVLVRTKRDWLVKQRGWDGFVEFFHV

`C[C@@H](COc1ccnc2c1[C@H](C)CCC2)C[C@H]1Cc2ccc(-c3ccn(C)c3)cc2[C@]12CC[C@@](Nc1cccc(Cl)c1)(C(=O)O)CC2` [Example 883, (1r,2′S,4S)-4-(3-chloroanilino)-2′-[(2R)-2-methyl-3-{[(5R)-5-methyl-5,6,7,8-tetrahydroquinolin-4-yl]oxy}propyl]-6′-(1-methyl-1H-pyrrol-3-yl)-2′,3′-dihydrospiro[cyclohexane-1,1′-indene]-4-carboxylic acid]: in the assay on NCI-H929 cell lines, the IC50 stood at 133 nM. In addition, the Ki in assay [1] is 0.246 nM.

As to `CC(c1ccc(O)cc1)c1ccc2c(c1)[C@]1(CC[C@@](Nc3cccc(Cl)c3)(C(=O)O)CC1)[C@@H](C[C@@H](C)COc1ccnc3c1[C@H](C)CCC3)C2` (stereo partly drawn) [Example 885, (1r,2′S,4S)-4-(3-chloroanilino)-6′-[1-(4-hydroxyphenyl)ethyl]-2′-[(2R)-2-methyl-3-{[(5R)-5-methyl-5,6,7,8-tetrahydroquinolin-4-yl]oxy}propyl]-2′,3′-dihydrospiro[cyclohexane-1,1′-indene]-4-carboxylic acid], in the assay with NCI-H929 cell lines, the IC50 worked out at 341 nM. Moreover, the Ki in assay [1] came to 2.03 nM.

`C[C@@H](COc1c(Cl)cnc2c1[C@H](C)CCC2)C[C@H]1Cc2cc3c(cc2[C@]12CC[C@@](Nc1ccc(F)c(Cl)c1)(C(=O)O)CC2)OCO3` [Example 886, (1r,4S,6′S)-4-(3-chloro-4-fluoroanilino)-6′-[(2R)-3-{[(5R)-3-chloro-5-methyl-5,6,7,8-tetrahydroquinolin-4-yl]oxy}-2-methylpropyl]-6′,7′-dihydro-2′H-spiro[cyclohexane-1,5′-indeno[5,6-d][1,3]dioxole]-4-carboxylic acid]: the IC50 with NCI-H929 cell lines came to 381 nM. In assay [1], the inhibitory constant (Ki) came to 0.145 nM.

In the case of `C[C@@H](COc1ccnc2c1[C@H](C)CCC2)C[C@H]1Cc2cc3c(cc2[C@]12CC[C@@](Nc1ccc(Cl)c(Cl)c1)(C(=O)O)CC2)OCO3` [Example 887, (1r,4S,6′S)-4-(3,4-dichloroanilino)-6′-[(2R)-2-methyl-3-{[(5R)-5-methyl-5,6,7,8-tetrahydroquinolin-4-yl]oxy}propyl]-6′,7′-dihydro-2′H-spiro[cyclohexane-1,5′-indeno[5,6-d][1,3]dioxole]-4-carboxylic acid], the IC50 with NCI-H929 cell lines was found to be 151 nM. The Ki in assay [1] is 0.293 nM.

As for `C[C@@H](COc1ccnc2c1[C@H](C)CCC2)C[C@H]1Cc2c(Cl)c3c(cc2[C@]12CC[C@@](Nc1cccc(Cl)c1)(C(=O)O)CC2)OCO3` [Example 888, (1r,4S,6′S)-8′-chloro-4-(3-chloroanilino)-6′-[(2R)-2-methyl-3-{[(5R)-5-methyl-5,6,7,8-tetrahydroquinolin-4-yl]oxy}propyl]-6′,7′-dihydro-2′H-spiro[cyclohexane-1,5′-indeno[5,6-d][1,3]dioxole]-4-carboxylic acid], the IC50 with NCI-H929 cell lines amounted to 92.5 nM. For the same compound, the Ki in assay [1] came to 0.25 nM.

For `COCc1cc2c(cc1F)C[C@H](C[C@@H](C)COc1ccnc3c1[C@H](C)CCC3)[C@]21CC[C@](Nc2cccc(Cl)c2)(C(=O)O)CC1` [Example 921, (1r,2′S,4S)-4-(3-chloroanilino)-5′-fluoro-6′-(methoxymethyl)-2′-[(2R)-2-methyl-3-{[(5R)-5-methyl-5,6,7,8-tetrahydroquinolin-4-yl]oxy}propyl]-2′,3′-dihydrospiro[cyclohexane-1,1′-indene]-4-carboxylic acid], in the assay with NCI-H929 cell lines, the IC50 was determined as 35.9 nM. For the same compound, the inhibitory constant (Ki) in assay [1] is 0.0108 nM.

On to `CCOC(=O)[C@]1(Nc2cccc(Cl)c2)CC[C@@]2(CC1)c1cc3c(cc1C[C@@H]2C[C@@H](C)COc1ccnc2c1[C@H](C)CCC2)OCO3` [Example 930, ethyl (1r,4S,6′S)-4-(3-chloroanilino)-6′-[(2R)-2-methyl-3-{[(5R)-5-methyl-5,6,7,8-tetrahydroquinolin-4-yl]oxy}propyl]-6′,7′-dihydro-2′H-spiro[cyclohexane-1,5′-indeno[5,6-d][1,3]dioxole]-4-carboxylate], for which the IC50 in the assay on NCI-H929 cell lines is above 30000 nM. Also, the inhibition at 1 µM in assay [1] (@ 1 μM, read-out: Mcl-1 inhibition, % at a single concentration) was found to be 4.5%.

Turning to `C[C@@H](COc1ccnc2c1[C@H](C)CCC2)C[C@H]1Cc2cc3c(cc2[C@]12CC[C@@](Nc1cccc(Cl)c1)(C(=O)OCC(F)(F)F)CC2)OCO3` [Example 932, 2,2,2-trifluoroethyl (1r,4S,6′S)-4-(3-chloroanilino)-6′-[(2R)-2-methyl-3-{[(5R)-5-methyl-5,6,7,8-tetrahydroquinolin-4-yl]oxy}propyl]-6′,7′-dihydro-2′H-spiro[cyclohexane-1,5′-indeno[5,6-d][1,3]dioxole]-4-carboxylate], the IC50 with NCI-H929 cell lines turned out to be 13600 nM. In addition, the inhibition constant Ki in assay [1] is 213 nM.

Take `COCCOCCOC(=O)[C@]1(Nc2cccc(Cl)c2)CC[C@@]2(CC1)c1cc3c(cc1C[C@@H]2C[C@@H](C)COc1ccnc2c1[C@H](C)CCC2)OCO3` [Example 933, 2-(2-methoxyethoxy)ethyl (1r,4S,6′S)-4-(3-chloroanilino)-6′-[(2R)-2-methyl-3-{[(5R)-5-methyl-5,6,7,8-tetrahydroquinolin-4-yl]oxy}propyl]-6′,7′-dihydro-2′H-spiro[cyclohexane-1,5′-indeno[5,6-d][1,3]dioxole]-4-carboxylate]: the IC50 with NCI-H929 cell lines is 18900 nM. Moreover, in assay [1], the Ki was 303 nM.

For `COCCOC(=O)[C@]1(Nc2cccc(Cl)c2)CC[C@@]2(CC1)c1cc3c(cc1C[C@@H]2C[C@@H](C)COc1ccnc2c1[C@H](C)CCC2)OCO3` [Example 934, 2-methoxyethyl (1r,4S,6′S)-4-(3-chloroanilino)-6′-[(2R)-2-methyl-3-{[(5R)-5-methyl-5,6,7,8-tetrahydroquinolin-4-yl]oxy}propyl]-6′,7′-dihydro-2′H-spiro[cyclohexane-1,5′-indeno[5,6-d][1,3]dioxole]-4-carboxylate], the IC50 in the assay on NCI-H929 cell lines was above 30000 nM. Further, in assay [1], the Ki was 69 nM.

Turning to `C[C@@H](COc1ccnc2c1[C@H](C)CCC2)C[C@H]1Cc2cc3c(cc2[C@]12CC[C@@](Nc1cccc(Cl)c1)(C(=O)OCCN(C)C)CC2)OCO3` [Example 935, 2-(dimethylamino)ethyl (1r,4S,6′S)-4-(3-chloroanilino)-6′-[(2R)-2-methyl-3-{[(5R)-5-methyl-5,6,7,8-tetrahydroquinolin-4-yl]oxy}propyl]-6′,7′-dihydro-2′H-spiro[cyclohexane-1,5′-indeno[5,6-d][1,3]dioxole]-4-carboxylate], the IC50 in the assay on NCI-H929 cell lines is 1900 nM. In addition, the inhibition constant Ki in assay [1] came out at 5.46 nM.

Regarding `C[C@@H](COc1ccnc2c1[C@H](C)CCC2)C[C@H]1Cc2cc3c(cc2[C@]12CC[C@@](Nc1cccc(Cl)c1)(C(=O)OCC(=O)N(C)C)CC2)OCO3` [Example 936, 2-(dimethylamino)-2-oxoethyl (1r,4S,6′S)-4-(3-chloroanilino)-6′-[(2R)-2-methyl-3-{[(5R)-5-methyl-5,6,7,8-tetrahydroquinolin-4-yl]oxy}propyl]-6′,7′-dihydro-2′H-spiro[cyclohexane-1,5′-indeno[5,6-d][1,3]dioxole]-4-carboxylate], the IC50 in the assay on NCI-H929 cell lines worked out at 6840 nM. The Ki in assay [1] came out at 142 nM.

Take `Cc1oc(=O)oc1COC(=O)[C@]1(Nc2cccc(Cl)c2)CC[C@@]2(CC1)c1cc3c(cc1C[C@@H]2C[C@@H](C)COc1ccnc2c1[C@H](C)CCC2)OCO3` [Example 938, (5-methyl-2-oxo-2H-1,3-dioxol-4-yl)methyl (1r,4S,6′S)-4-(3-chloroanilino)-6′-[(2R)-2-methyl-3-{[(5R)-5-methyl-5,6,7,8-tetrahydroquinolin-4-yl]oxy}propyl]-6′,7′-dihydro-2′H-spiro[cyclohexane-1,5′-indeno[5,6-d][1,3]dioxole]-4-carboxylate]: the IC50 in the assay with NCI-H929 cell lines was determined as 44.2 nM. For the same compound, the inhibition constant (Ki) in assay [1] worked out at 2.43 nM.

With `CC(=O)OC(C)OC(=O)[C@]1(Nc2cccc(Cl)c2)CC[C@@]2(CC1)c1cc3c(cc1C[C@@H]2C[C@@H](C)COc1ccnc2c1[C@H](C)CCC2)OCO3` (stereo partly drawn) [Example 939, 1-(acetyloxy)ethyl (1r,4S,6′S)-4-(3-chloroanilino)-6′-[(2R)-2-methyl-3-{[(5R)-5-methyl-5,6,7,8-tetrahydroquinolin-4-yl]oxy}propyl]-6′,7′-dihydro-2′H-spiro[cyclohexane-1,5′-indeno[5,6-d][1,3]dioxole]-4-carboxylate], the IC50 in the assay on NCI-H929 cell lines is 157 nM. In assay [1], the inhibition constant (Ki) was found to be 1.7 nM.

`CCC(=O)OC(C)OC(=O)[C@]1(Nc2cccc(Cl)c2)CC[C@@]2(CC1)c1cc3c(cc1C[C@@H]2C[C@@H](C)COc1ccnc2c1[C@H](C)CCC2)OCO3` (stereo partly drawn) [Example 940, 1-(propanoyloxy)ethyl (1r,4S,6′S)-4-(3-chloroanilino)-6′-[(2R)-2-methyl-3-{[(5R)-5-methyl-5,6,7,8-tetrahydroquinolin-4-yl]oxy}propyl]-6′,7′-dihydro-2′H-spiro[cyclohexane-1,5′-indeno[5,6-d][1,3]dioxole]-4-carboxylate]: the IC50 in the assay with NCI-H929 cell lines turned out to be 266 nM. For the same compound, in assay [1], the Ki worked out at 2.52 nM.

As for `COCC(=O)OC(C)OC(=O)[C@]1(Nc2cccc(Cl)c2)CC[C@@]2(CC1)c1cc3c(cc1C[C@@H]2C[C@@H](C)COc1ccnc2c1[C@H](C)CCC2)OCO3` (stereo partly drawn) [Example 941, 1-[(methoxyacetyl)oxy]ethyl (1r,4S,6′S)-4-(3-chloroanilino)-6′-[(2R)-2-methyl-3-{[(5R)-5-methyl-5,6,7,8-tetrahydroquinolin-4-yl]oxy}propyl]-6′,7′-dihydro-2′H-spiro[cyclohexane-1,5′-indeno[5,6-d][1,3]dioxole]-4-carboxylate], in the assay with NCI-H929 cell lines, the IC50 turned out to be 46.2 nM. Also, the Ki in assay [1] was 3.94 nM.

Source of the values: patent US20240150293A1, “SPIROCYCLOHEXANE DERIVATIVES, PHARMACEUTICAL COMPOSITIONS CONTAINING THEM AND THEIR USES AS ANTI-APOPTOTIC INHIBITORS” (LES LABORATOIRES SERVIER, priority 2021, published 2024).
